In the NIST ThermoML archive (doi:10.1021/je7003758):

Assay: xn = mol fraction of the nth substance listed
Conditions: 298.15 K, Liquid

ClCCCCCCCl [1,6-dichlorohexane] + CN1CCCC1=O
mass density [kg/m3]
Conditions	x2 = 0.1182	x2 = 0.2016	x2 = 0.3079	x2 = 0.4114	x2 = 0.5049	x2 = 0.6008	x2 = 0.7023	x2 = 0.8009	x2 = 0.8972
10000 kPa	–	–	–	–	1055.2	1051.6	1047.4	1043.1	1038.6
10500 kPa	1067.8	1065.4	1062.2	1058.7	1055.6	1051.9	1047.7	1043.4	1038.8
11000 kPa	1068.1	1065.8	1062.5	1059	1055.9	1052.2	1048	1043.6	1039.1
11500 kPa	1068.4	1066.1	1062.8	1059.3	1056.2	1052.4	1048.2	1044	1039.3
12000 kPa	1068.8	1066.4	1063.1	1059.6	1056.4	1052.7	1048.5	1044.2	1039.6
12500 kPa	1069.1	1066.7	1063.5	1059.9	1056.7	1053	1048.8	1044.5	1039.8
13000 kPa	1069.4	1067	1063.8	1060.3	1057	1053.3	1049.2	1044.8	1040.1
13400 kPa	–	–	–	–	–	–	1049.5	–	–
13500 kPa	1069.7	1067.4	1064.1	1060.6	1057.3	1053.6	–	1045.1	1040.4
13900 kPa	–	–	–	–	1057.6	–	–	–	–
14000 kPa	1070	1067.6	1064.4	1060.9	–	1053.9	1049.7	1045.3	1040.6
14400 kPa	–	–	–	–	–	–	–	1045.6	–
14500 kPa	1070.4	1068	1064.7	1061.2	1057.9	1054.2	1050	–	1041
15000 kPa	1070.7	1068.3	1065	1061.5	1058.2	1054.5	1050.3	1045.9	1041.2
15400 kPa	–	–	–	1061.8	–	–	–	–	–
15500 kPa	1071	1068.6	1065.4	–	1058.5	1054.8	1050.6	1046.2	1041.4
16000 kPa	1071.4	1069	1065.6	1062	1058.8	1055.1	1050.8	1046.4	1041.7
16500 kPa	1071.7	1069.2	1065.9	1062.4	1059.1	1055.4	1051	1046.6	1041.9
16900 kPa	–	–	1066.2	–	–	–	–	–	–
17000 kPa	1072	1069.6	–	1062.7	1059.4	1055.6	1051.3	1046.9	1042.2
17500 kPa	1072.3	1069.8	1066.5	–	1059.7	1055.9	1051.6	1047.2	1042.5
17600 kPa	–	–	–	1063	–	–	–	–	–
17900 kPa	1072.6	–	–	–	–	1056.2	–	–	–
18000 kPa	–	1070.2	1066.7	1063.3	1059.9	–	1051.8	1047.5	1042.7
18400 kPa	–	–	–	–	–	–	–	1047.6	–
18500 kPa	1072.9	1070.5	1067.1	1063.5	1060.2	1056.5	1052.1	–	1043
19000 kPa	1073.3	1070.8	1067.4	1063.9	1060.6	1056.8	1052.4	1048	1043.2
19400 kPa	–	–	1067.7	1064.1	–	–	–	–	–
19500 kPa	1073.6	1071.1	–	–	1060.9	1057	1052.8	1048.2	1043.5
20000 kPa	1073.9	1071.4	1068.2	–	1061.2	1057.5	1053	1048.7	1043.8
20100 kPa	–	–	–	1064.5	–	–	–	–	–
